# Test results as given in US20130225591A1, “IMIDOTHIAZOLE KINASE INHIBITORS” (priority 2009, published 2013).
# Biological target: T1, CDK5-p25 kinase (Homo sapiens, UniProt Q00535)
# T1 construct: purchased Invitrogen PV4677
# Assay: CDK5-p25 kinase enzymatic assay
# Format: biochemical
# Settings: 50 nM-99 nM; 5 uM ATP, 0.3 nM CDK5-p25; read-out: IC50 potency, CDK5-p25 kinase enzymatic assay, 50 nM-99 nM
# Protocol: CDK5-p25 kinase (Invitrogen PV4677) enzymatic activity was measured using electrophoretic separation and fluorescent detection to monitor phosphorylation of a fluorescently labeled histone H1-derived peptide substrate, FL29 (5-FAM-GGGPATPKKAKKL-CONH2, Caliper #760429)
# First, 0.25 uL of serially diluted compound in DMSO at 100× concentration was transferred into each well of a 384-well polystyrene assay plate. To this was added 15 uL of a 1.67× enzyme solution (500 pM enzyme, 1 mM DTT (Sigma D9779), 1× reconstitution buffer with protease inhibitor (Caliper #700329 proprietary formulation)), followed by centrifugation for 1 min at 1000 rpm, and incubation for 5-15 min at room temperature to allow binding of compound to enzyme. To initiate the reaction, 10 uL of substrate/ATP mix (245 mM Hepes pH 7.5, 0.003% Brij 35, 0.004% Tween, 12.75 uM ATP, 3.75 uM FL29 peptide) were added to each well, followed by centrifugation at 1000 rpm for 1 min. The reaction was then incubated at room temperature for 30 min. Final assay conditions were: 0.3 nM CDK5-p25, 1.5 uM peptide, 5 uM ATP, 0.6 mM DTT, 1% DMSO, 98 mM HEPES pH 7.5.
# After incubation, reactions were quenched by the addition of 45 uL Caliper termination solution (Caliper proprietary formula), followed by centrifugation at 1000 rpm for 1 min. Extent of reaction (percentage conversion of substrate to phosphorylated product) was then measured using the Caliper EZ II reader. Dose-response curves were created by plotting the inhibition of enzyme activity (normalized relative to vehicle treated and no ATP control reactions) as a function of the log of compound concentration. The curve was analyzed using a four parameter logistical fit to calculate IC50 values.
# T1 sequence (Q00535 whole entry): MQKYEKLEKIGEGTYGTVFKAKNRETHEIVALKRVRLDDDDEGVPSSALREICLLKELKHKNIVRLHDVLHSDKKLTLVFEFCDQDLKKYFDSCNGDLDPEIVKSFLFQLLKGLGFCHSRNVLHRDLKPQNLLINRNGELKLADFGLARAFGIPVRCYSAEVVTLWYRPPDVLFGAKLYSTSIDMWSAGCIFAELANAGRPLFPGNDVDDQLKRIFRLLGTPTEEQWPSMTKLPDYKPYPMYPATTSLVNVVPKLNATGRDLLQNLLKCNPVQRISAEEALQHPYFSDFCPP
# T1 sequence (Q15078 99-307 partner limits assumed): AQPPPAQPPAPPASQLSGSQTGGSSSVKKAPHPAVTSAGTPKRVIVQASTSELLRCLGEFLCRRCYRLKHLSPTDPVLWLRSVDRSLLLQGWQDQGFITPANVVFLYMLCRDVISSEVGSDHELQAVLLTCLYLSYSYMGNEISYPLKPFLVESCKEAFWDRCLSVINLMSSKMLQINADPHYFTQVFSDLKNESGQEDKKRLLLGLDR
row,Structure (SMILES),IC50 [µM]
1,"CN(C)c1ccc(CC(=O)Nc2ncn3c(C(F)(F)F)csc23)cc1 [Example 31, 2-[4-(dimethylamino)phenyl]-N-[3-(trifluoromethyl)imidazo[5,1-b][1,3]thiazol-7-yl]acetamide]",0.05 to 0.099
2,"Nc1ncc(-c2ccc(CC(=O)Nc3ncn4c(C(F)(F)F)csc34)cc2)cn1 [Example 35, 2-[4-(2-aminopyrimidin-5-yl)phenyl]-N-[3-(trifluoromethyl)imidazo[5,1-b][1,3]thiazol-7-yl]acetamide]",0.05 to 0.099
3,"O=C(Nc1ncn2c(C(F)(F)F)csc12)C(Cl)c1ccc2ccccc2c1 (centres unmarked) [Example 42, 2-chloro-2-(2-naphthyl)-N-[3-(trifluoromethyl)imidazo[5,1-b][1,3]thiazol-7-yl]acetamide]",0.05 to 0.099
4,"Nc1cc(Nc2cccc(CC(=O)Nc3ncn4c(C(F)(F)F)csc34)c2)ccn1 [Example 49, 2-{3-[(2-aminopyridin-4-yl)amino]phenyl}-N-[3-(trifluoromethyl)imidazo[5,1-b][1,3]thiazol-7-yl]acetamide]",0.05 to 0.099
5,"O=C(Cc1c[nH]c2ccccc12)Nc1ncn2c(C(F)(F)F)csc12 [Example 57, 2-(1H-indol-3-yl)-N-[3-(trifluoromethyl)imidazo[5,1-b][1,3]thiazol-7-yl]acetamide]",0.05 to 0.099

# More lines, now with the values ahead:
row,IC50 [µM],Structure (SMILES)
1,0.05 to 0.099,"O=C(Cc1ccc2c(c1)OCO2)Nc1ncn2c(C(F)(F)F)csc12 [Example 30, 2-(1,3-benzodioxol-5-yl)-N-[3-(trifluoromethyl)imidazo[5,1-b][1,3]thiazol-7-yl]acetamide]"
2,0.05 to 0.099,"C[C@H](C(=O)Nc1ncn2c(C(F)(F)F)csc12)c1ccc2ccccc2c1 [Example 36, (2S)-2-(2-naphthyl)-N-[3-(trifluoromethyl)imidazo[5,1-b][1,3]thiazol-7-yl]propanamide]"
3,0.05 to 0.099,"CC(C(=O)Nc1ncn2c(C(F)(F)F)csc12)c1ccc2ncccc2c1 (centres unmarked) [Example 39, 2-quinolin-6-yl-N-[3-(trifluoromethyl)imidazo[5,1-b][1,3]thiazol-7-yl]propanamide]"
4,0.05 to 0.099,"O=C(Cc1ccc2ccccc2c1)Nc1ncn2c(C(F)F)csc12 [Example 41, N-[3-(difluoromethyl)imidazo[5,1-b][1,3]thiazol-7-yl]-2-(2-naphthyl) acetamide]"

# Same assay, conditions: 500 nM-3 μM; 5 uM ATP, 0.3 nM CDK5-p25; read-out: IC50 potency, CDK5-p25 kinase enzymatic assay, 500 nM-3 μM
row,IC50 [µM],Structure (SMILES)
1,0.5 to 3,"O=C(Cc1cn2cccnc2n1)Nc1ncn2c(C(F)(F)F)csc12 [Example 28, 2-imidazo[1,2-a]pyrimidin-2-yl-N-[3-(trifluoromethyl)imidazo[5,1-b][1,3]thiazol-7-yl]acetamide]"
2,0.5 to 3,"O=C(Cc1ccc2ccccc2c1)Nc1ncn2c(C3CC3)csc12 [Example 38, N-(3-cyclopropyl-imidazo[5,1-b][1,3]thiazol-7-yl)-2-(2-naphthyl) acetamide]"
3,0.5 to 3,"C[C@@H](C(=O)Nc1ncn2c(C(F)(F)F)csc12)c1ccc2ncccc2c1 [Example 47, (2R)-2-quinolin-6-yl-N-[3-(trifluoromethyl)imidazo[5,1-b][1,3]thiazol-7-yl]propanamide]"

# Same assay, conditions: 5 uM ATP, 0.3 nM CDK5-p25; read-out: IC50 potency, CDK5-p25 kinase enzymatic assay, 100 nM-499 nM
row,Structure (SMILES),IC50 [µM]
1,"O=C(Cc1cn2ccccc2n1)Nc1ncn2c(C(F)(F)F)csc12 [Example 29, 2-imidazo[1,2-a]pyridin-2-yl-N-[3-(trifluoromethyl)imidazo[5,1-b][1,3]thiazol-7-yl]acetamide]",0.1 to 0.499
2,"O=C(Cc1cncnc1)Nc1ncn2c(C(F)(F)F)csc12 [Example 32, 2-pyrimidin-5-yl-N-[3-(trifluoromethyl)imidazo[5,1-b][1,3]thiazol-7-yl]acetamide]",0.1 to 0.499
3,"Cc1cnc(-c2ccc(CC(=O)Nc3ncn4c(C(F)(F)F)csc34)cc2)cn1 [Example 51, 2-[4-(5-methylpyrazin-2-yl)phenyl]-N-[3-(trifluoromethyl)imidazo[5,1-b][1,3]thiazol-7-yl]acetamide]",0.1 to 0.499

# Next, values leading:
row,IC50 [µM],Structure (SMILES)
1,0.1 to 0.499,"CC(C(=O)Nc1ncn2c(C(F)(F)F)csc12)c1ccc2ccccc2c1 (centres unmarked) [Example 34, 2-(2-naphthyl)-N-[3-(trifluoromethyl)imidazo[5,1-b][1,3]thiazol-7-yl]propanamide]"
2,0.1 to 0.499,"O=C(Nc1ncn2c(C(F)(F)F)csc12)C(O)c1ccc2ccccc2c1 (centres unmarked) [Example 40, 2-hydroxy-2-(2-naphthyl)-N-[3-(trifluoromethyl)imidazo[5,1-b][1,3]thiazol-7-yl]acetamide]"
3,0.1 to 0.499,"CS(=O)(=O)c1ccc(CC(=O)Nc2ncn3c(C(F)(F)F)csc23)cc1 [Example 58, 2-[4-(methylsulfonyl)phenyl]-N-[3-(trifluoromethyl)imidazo[5,1-b][1,3]thiazol-7-yl]acetamide]"

# Same assay, conditions: '<50 nM'; 5 uM ATP, 0.3 nM CDK5-p25; read-out: IC50 potency, CDK5-p25 kinase enzymatic assay, <50 nM
row,Structure (SMILES),IC50 [µM]
1,"O=C(Cc1ccc2[nH]ncc2c1)Nc1ncn2c(C(F)(F)F)csc12 [Example 37, 2-(1H-indazol-5-yl)-N-[3-(trifluoromethyl)imidazo[5,1-b][1,3]thiazol-7-yl]acetamide]",< 0.05
2,"O=C(Cc1ccc(Cl)cc1)Nc1ncn2c(C(F)(F)F)csc12 [Example 43, 2-(4-chlorophenyl)-N-[3-(trifluoromethyl)imidazo[5,1-b][1,3]thiazol-7-yl]acetamide]",< 0.05
3,"O=C(Cc1cccc(-c2cc[nH]n2)c1)Nc1ncn2c(C(F)(F)F)csc12 [Example 48, 2-[3-(1H-pyrazol-3-yl)phenyl]-N-[3-(trifluoromethyl)imidazo[5,1-b][1,3]thiazol-7-yl]acetamide]",< 0.05
4,"O=C(Cc1ccc(-c2ccccc2)nc1)Nc1ncn2c(C(F)(F)F)csc12 [Example 50, 2-(6-phenylpyridin-3-yl)-N-[3-(trifluoromethyl)imidazo[5,1-b][1,3]thiazol-7-yl]acetamide]",< 0.05
5,"O=C(Cc1cccc(-c2cccnc2)c1)Nc1ncn2c(C(F)(F)F)csc12 [Example 52, 2-(3-pyridin-3-ylphenyl)-N-[3-(trifluoromethyl)imidazo[5,1-b][1,3]thiazol-7-yl]acetamide]",< 0.05
6,"O=C(Cc1ccc(-c2ccsc2)cc1)Nc1ncn2c(C(F)(F)F)csc12 [Example 53, 2-[4-(3-thienyl)phenyl]-N-[3-(trifluoromethyl)imidazo[5,1-b][1,3]thiazol-7-yl]acetamide]",< 0.05
7,"Cc1ccc(-c2ccc(CC(=O)Nc3ncn4c(C(F)(F)F)csc34)cc2)cn1 [Example 55, 2-[4-(6-methylpyridin-3-yl)phenyl]-N-[3-(trifluoromethyl)imidazo[5,1-b][1,3]thiazol-7-yl]acetamide]",< 0.05
8,"O=C(Cc1cccc(-c2ccccn2)c1)Nc1ncn2c(C(F)(F)F)csc12 [Example 56, 2-(3-pyridin-2-ylphenyl)-N-[3-(trifluoromethyl)imidazo[5,1-b][1,3]thiazol-7-yl]acetamide]",< 0.05

# Results, then the molecule that gave them:
row,IC50 [µM],Structure (SMILES)
1,< 0.05,"O=C(Nc1ncn2c(C(F)(F)F)csc12)C(F)c1ccc2ccccc2c1 (centres unmarked) [Example 33, 2-fluoro-2-(2-naphthyl)-N-[3-(trifluoromethyl)imidazo[5,1-b][1,3]thiazol-7-yl]acetamide]"
2,< 0.05,"C[C@H](C(=O)Nc1ncn2c(C(F)(F)F)csc12)c1ccc2ncccc2c1 [Example 46, (2S)-2-quinolin-6-yl-N-[3-(trifluoromethyl)imidazo[5,1-b][1,3]thiazol-7-yl]propanamide]"
3,< 0.05,"O=C(Cc1ccc(-c2ccccn2)cc1)Nc1ncn2c(C(F)(F)F)csc12 [Example 54, 2-(4-pyridin-2-ylphenyl)-N-[3-(trifluoromethyl)imidazo[5,1-b][1,3]thiazol-7-yl]acetamide]"
